Entries after “also recorded” stand apart in the source; their conditions may differ. Square brackets hold non-standard residues; d marks the D form. Peptide text beside a SMILES is read from it. 2Nal = N[C@@H](Cc1ccc2ccccc2c1)C(=O)O
How the values were obtained:
[1] = Pharmacokinetics of tritiated cF and c2 in BALB/c mice; type: in vivo
Protocol: All animal studies were performed according to the guidelines for the ethical use of animals published by the National Health and Medical Research Council of Australia. Mouse pharmacokinetic studies were conducted with approval from the Garvan Institute Animal Ethics Committee (approval #02/21). cF and c2 were radioactively labelled with tritium by catalytic saturation of peptide analogues containing dehydroleucine (Sibtech Inc.), yielding high specific activity (50–60 Ci/mmol) peptides. Their identity was confirmed by three separate analytical methods prior to delivery. Mice (BALB/c, n = 4 per timepoint) were administered a single dose of peptide by the routes and times indicated. Animals were then exsanguinated by cardiac puncture under halothane anaesthesia followed by cervical dislocation. Tissues and plasma were stored at −80 °C prior to analysis. For plasma, a known volume of plasma was added to liquid scintillant (Ultima Gold, Perkin Elmer). For tissues, a known amount of tissue (50–100 mg) was incubated in NaOH (1 mL, 1 M) overnight at room temperature. The solutions were then bleached with disodium EDTA (100 µl, 0.1%) and hydrogen peroxide (300 µl, 30%) and incubated at 50 °C for one hour. The peptide content of plasma and tissues was determined by liquid scintillation counting. The stability of the peptides following administration to animals was evaluated by thin-layer chromatography of tissue-extracted peptide relative to peptide prior to injection (Fig. S2c).

[2] = 28-day repeated dose oral toxicity study (OECD 407): overall toxicity, mortality; type: in vivo, male Sprague Dawley rats
Protocol: Potential toxicity of c2 was evaluated with a 28-day repeated dose oral toxicity study (OECD 407) in male Sprague Dawley rats, with a recovery period. Animals (n = 10 per group) were treated with vehicle (1% carboxymethylcellulose in distilled water), c2 at 1 mg/kg or at 20 mg/kg every three days for 28 days. Animals were sacrificed on day 29 and blood and tissues were taken for further analysis. Two recovery groups treated concomitantly with the main study (n = 5, vehicle of 20 mg/kg c2) were monitored for a further 14-day treatment-free period, sacrificed on Day 43 and blood and tissues taken for analysis. (Data available on request).
2.8.4. Repeated dose toxicity
Repeated do se toxicity is the adver se effects o ccurring within a short time of several repeated administrations of a test item over a defined period.
The test item is the article that is the subject of the study.
Vehicle is any agent, which serves as a carrier used to mix, disperse, or solubilize the test item or reference item to facilitate the administration/application to the test system.
2.9. Principle of the test method
The test item suspension or vehicle was administered orally by gavage every three days for 28 days to three groups of male rat s at two do se le vels (low - 1 and high - 20 mg/kg) to as ses s toxicity. Two vehicle control groups were dosed with the vehicle. A recovery group was included to investigate reversibility of any toxicity and persistence or delayed occurrence of […]
Daily clinical obs ervations were performed. Weekly detailed clinical examination s were performed on all animals. Functional observations were performed in the last week of treatment.
Body weights were monitored weekly throughout the study. Feed intake was measured weekly.
Gross necropsy was conducted in all animals th at died or were killed during the study. Full blood analysis and detailed histopathology was performed on conclusion of the main study.
All tissues and carcasse s were placed in 10% formalin and retained for a period of 6 months. […]
3.1. Regulatory references
The study was conducted according to the OECD Guidelines for the Testing of Chemical s, No.407 - Repeated Dose 28-Day Oral Toxicity Study in Rodents. [Adopted: 3 October […]
3.1.2. Good Laboratory Practice
This study was conducted in accordance with the Organization of Economic Cooperation and Development (OECD) Principles of Good Laboratory Practice (as revised in 1997) ENV/MC/CHEM (98) 17. The study was performed in accordance with the agreed protocol and with ICP Firefly Pty Ltd Standard Operating Procedures (SOPs).
3.1.3. Animal Welfare Act compliance
The experimental protocol was approved by the ICP Firefly Animal Ethics Committee, and […]
Regulation 2005 and the Code of Practice under t hat Regulation. It was granted Approval […]
The Sponsor provided a Certificate of Analysis for the test item, which is attached a s an appendix to the report (Appendix A Certificate of Analysis). […]
3.4.1. Justification for species selection
The Specific Pathogen Free [SPF] male Sprague Dawley rat was selected since it is widely accepted and recognised by international guidelines as an appropriate experimental model […]
3.4.2. Species, strain source and housing
A total of 40 young adult Spe cific Pathogen Fr ee Mal e Sprague D awley rats weighing between 189 and 212 grams the b eginning of the experiment were used for the study. The animals were obtained from Animal Resources Ce ntre (ARC), WA, Australia. […]

[3] = 28-day oral toxicity study: feed consumption
Protocol: The calculated volumetric do se wa s administered to each rat orally by gav age, using a plastic
intragastric cannula attached to a 3 mL syringe.
Two dose level s of 1 and 20 mg/kg of the te st it em susp ension were administered to each rat
every 3 days (total 10 do ses) for 28 days. This c orresponded to volumetric dose of 10.09 and
10.23 mL/kg. The volumetric dose administered to each animal was calculated on Days 1, 8, 15
Feed consumption was monitored weekly over the 28-day experimental period in all groups
and was continued for a further 2 weeks in the recovery groups (42-day experimental
period). Feed intake was monitored by providing a known mass of feed to each cage and
subtracting the mas s remaining at the end of th e weekly period. Animals were fa sted
overnight on either Day 28 (main groups) or Day 42 (recovery groups).

CC(C)C[C@@H]1NC(=O)[C@H](Cc2ccc3ccccc3c2)NC(=O)[C@H](CCCNC(=N)N)NC(=O)[C@H](Cc2ccc3ccccc3c2)NC(=O)[C@H](CO)NC1=O [c2, cyclo-((2-Nal)-Leu-Ser-(2-Nal)-Arg)] (cyclo([2Nal]LS[2Nal]R))
oral bioavailability (in words) ([1]; sc and po administration): orally bioavailable | oral bioavailability relative to sc delivery (AUC analysis) ([1]; tritiated peptide 5 mg/kg, po vs sc, at 16 hours): ~ 10% | effective concentration relative to the maximum observed dosage with no toxicity ([2]; 0.1 mg/kg vs 40 mg/kg): 400 times | urinalysis and blood analysis ([2]; 1 and 20 mg/kg): no test item related effects | toxicity (all measures) ([2]; 1 and 20 mg/kg po every three days over 28 days): no observable toxicity; also recorded: no toxic effects | mortality related to the treatment ([2]; 1 and 20 mg/kg, main and recovery study): No mortalities | NOAEL at 672 h ([2]; male, Sprague Dawley, rat, in vivo, po, Appendix 1, read-out: maximum observed dosage with no toxicity): 40 mg/kg | feed intake vs control ([3]; 28-day and 42-day experimental period): similar | Mean feed intake/cage/week ([3]; Week 1, Gr 2, 1 mg/kg, 5 animals/cage): 801 ± 26.9 g | Mean feed intake/cage/week ([3]; Week 1, Grs 3 & 5, 20 mg/kg): 819 ± 55.4 g | Mean feed intake/cage/week ([3]; Week 2, Gr 2, 1 mg/kg): 839 ± 12.0 g | Mean feed intake/cage/week ([3]; Week 2, Grs 3 & 5, 20 mg/kg): 877 ± 45.1 g | Mean feed intake/cage/week ([3]; Week 3, Gr 2, 1 mg/kg): 845 ± 0 g | Mean feed intake/cage/week ([3]; Week 3, Grs 3 & 5, 20 mg/kg): 916 ± 35.2 g | Mean feed intake/cage/week ([3]; Week 4, Grs 3 & 5, 20 mg/kg): 815 ± 42.0 g | Mean feed intake/cage/week ([3]; Week 5, Gr 5 recovery, 20 mg/kg): 1013 g | Mean feed intake/cage/week ([3]; Week 6, Gr 5 recovery, 20 mg/kg): 802 g | Mean feed intake/cage/week ([3]; week 4, Gr 2, 1 mg/kg): 775 ± 27.6 g
